Assay results from publication PMC9886550, “Molecular mechanism of topoisomerase poisoning by the peptide antibiotic albicidin” (Nature Catalysis, 2023).

Columns and labels:
Format in all cases: biochemical
E. coli gyrase GyrA^A67Q = target: T1, E. coli gyrase GyrA^A67Q (Escherichia coli, UniProt P0AES4+P0AES6, A67Q); test: DNA gyrase cleavage assay (CC50, % cleaved DNA); conditions: for % cleaved DNA Average: average of replicates
T1 construct: alternative cryo-EM approach involving full-length E. coli gyrase; 10-His (cleaved yes); Twin-Strep (cleaved yes); made in house
Method: (§1) For DNA gyrase supercoiling assays to characterize gyrase mutants, 15 µl reactions were set up containing 250 ng of relaxed DNA, E. coli gyrase supercoiling buffer (35 mM Tris–Cl pH 7.5, 24 mM KCl, 4 mM MgCl2, 2 mM DTT, 1.8 mM spermidine, 1 mM ATP, 6.0% (w/v) glycerol, and 0.1 mg ml^−1 BSA), gyrase subunits and inhibitors. Concentrations of enzyme and inhibitor are stated in the figure legends. Inhibitors were diluted in the following way to reduce the chance of precipitation: stock compound in 100% DMSO was diluted to 5 mM in 100% DMSO. This compound solution was diluted to 1 mM by stepwise addition of 1 µl of 50% DMSO with thorough mixing via pipetting after each addition. All subsequent dilutions up to 100 µM were performed in the same way using H2O. After this point, compounds were stable and could be diluted in the normal way. Reactions were incubated at 37 °C for 30 min before stopping with 15 µl chloroform:isoamyl alcohol (24:1 v/v) and 15 µl of STEB (40% (w/v) sucrose, 100 mM Tris–Cl pH 8, 10 mM EDTA, 0.5 mg ml^−1 bromophenol blue).
(§2) Cleavage assays were set up in the same way as supercoiling assays with some modifications. The concentration of enzyme was increased 4-fold relative to the supercoiling assay and reactions were incubated for 1 h before addition of 0.2% SDS and proteinase K (0.2 mg ml^−1) and further incubation at 37 °C for 30 min to trap cleavage complexes. Reactions were stopped in the same way as supercoiling assays.
(§3) Results were visualized by agarose gel electrophoresis: 1% agarose Tris-acetate-EDTA (TAE) gels were run without ethidium bromide (supercoiling) or with 10 µg ml^−1 ethidium bromide (cleavage) at 8 V cm^−1.
(§4) DNA cleavage gels were analysed using densitometry (ImageJ). Experiments were carried out in triplicate and expressed as mean ± s.d. Curves were fitted using OriginPro 2021 (Origin Lab) according to a modified Hill equation:1 y=cI+(cF−cI)[…]/(k^n+x^n) where y is the percentage of cleaved DNA, cI is the initial cleavage, cF is the final cleavage, k is the CC50 (the concentration of inhibitor that results in cleavage of 50% of DNA), n is a slope factor and x is the inhibitor concentration.

[1] = target: T2, E. coli gyrase GyrB^K447W (Escherichia coli, UniProt P0AES4+P0AES6, K447W); test: DNA gyrase cleavage assay (CC50, % cleaved DNA)
T2 construct: alternative cryo-EM approach involving full-length E. coli gyrase; 10-His (cleaved yes); Twin-Strep (cleaved yes); made in house
Method: as §1, §2, §3, §4

E. coli gyrase GyrA^V70A = target: T3, E. coli gyrase GyrA^V70A (Escherichia coli, UniProt P0AES4+P0AES6, V70A); test: DNA gyrase cleavage assay (CC50, % cleaved DNA); conditions: for % cleaved DNA Average: average of replicates
T3 construct: alternative cryo-EM approach involving full-length E. coli gyrase; 10-His (cleaved yes); Twin-Strep (cleaved yes); made in house
Method: as §1, §2, §3, §4

[2] = target: T4, E. coli gyrase GyrA^M120A (Escherichia coli, UniProt P0AES4+P0AES6, M120A); test: DNA gyrase cleavage assay (CC50, % cleaved DNA); conditions: for % cleaved DNA Average: average of replicates
T4 construct: alternative cryo-EM approach involving full-length E. coli gyrase; 10-His (cleaved yes); Twin-Strep (cleaved yes); made in house
Method: as §1, §2, §3, §4

E. coli gyrase GyrA^S83L = target: T5, E. coli gyrase GyrA^S83L (Escherichia coli, UniProt P0AES4+P0AES6, S83L); test: DNA gyrase cleavage assay (CC50, % cleaved DNA); conditions: for % cleaved DNA Average: average of replicates
T5 construct: alternative cryo-EM approach involving full-length E. coli gyrase; 10-His (cleaved yes); Twin-Strep (cleaved yes); made in house
Method: as §1, §2, §3, §4

E. coli Topo IV = E. coli Topo IV (Escherichia coli, UniProt P0AFI2+P20083); test: Topo IV cleavage assay (cleavage complex stabilization)
Chain of E. coli Topo IV (P0AFI2 whole entry): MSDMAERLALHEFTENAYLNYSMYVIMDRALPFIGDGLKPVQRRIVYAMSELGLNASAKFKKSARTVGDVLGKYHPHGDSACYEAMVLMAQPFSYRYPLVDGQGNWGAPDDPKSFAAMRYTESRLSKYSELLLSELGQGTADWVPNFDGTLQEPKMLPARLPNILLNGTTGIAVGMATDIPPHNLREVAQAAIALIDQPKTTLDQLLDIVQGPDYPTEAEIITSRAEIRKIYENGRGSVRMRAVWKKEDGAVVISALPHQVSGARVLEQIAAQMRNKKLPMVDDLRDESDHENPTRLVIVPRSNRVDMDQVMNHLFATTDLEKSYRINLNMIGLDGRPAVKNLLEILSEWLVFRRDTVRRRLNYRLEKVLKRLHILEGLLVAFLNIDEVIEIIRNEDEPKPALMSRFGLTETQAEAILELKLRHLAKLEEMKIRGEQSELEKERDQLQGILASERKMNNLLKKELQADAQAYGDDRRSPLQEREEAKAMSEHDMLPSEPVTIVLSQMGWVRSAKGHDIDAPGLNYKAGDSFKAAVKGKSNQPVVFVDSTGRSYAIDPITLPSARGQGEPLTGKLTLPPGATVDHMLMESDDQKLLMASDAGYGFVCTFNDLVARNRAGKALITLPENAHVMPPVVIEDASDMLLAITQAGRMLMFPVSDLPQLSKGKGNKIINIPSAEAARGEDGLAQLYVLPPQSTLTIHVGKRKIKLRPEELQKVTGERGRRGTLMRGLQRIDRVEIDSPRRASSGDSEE
Chain of E. coli Topo IV (P20083 whole entry): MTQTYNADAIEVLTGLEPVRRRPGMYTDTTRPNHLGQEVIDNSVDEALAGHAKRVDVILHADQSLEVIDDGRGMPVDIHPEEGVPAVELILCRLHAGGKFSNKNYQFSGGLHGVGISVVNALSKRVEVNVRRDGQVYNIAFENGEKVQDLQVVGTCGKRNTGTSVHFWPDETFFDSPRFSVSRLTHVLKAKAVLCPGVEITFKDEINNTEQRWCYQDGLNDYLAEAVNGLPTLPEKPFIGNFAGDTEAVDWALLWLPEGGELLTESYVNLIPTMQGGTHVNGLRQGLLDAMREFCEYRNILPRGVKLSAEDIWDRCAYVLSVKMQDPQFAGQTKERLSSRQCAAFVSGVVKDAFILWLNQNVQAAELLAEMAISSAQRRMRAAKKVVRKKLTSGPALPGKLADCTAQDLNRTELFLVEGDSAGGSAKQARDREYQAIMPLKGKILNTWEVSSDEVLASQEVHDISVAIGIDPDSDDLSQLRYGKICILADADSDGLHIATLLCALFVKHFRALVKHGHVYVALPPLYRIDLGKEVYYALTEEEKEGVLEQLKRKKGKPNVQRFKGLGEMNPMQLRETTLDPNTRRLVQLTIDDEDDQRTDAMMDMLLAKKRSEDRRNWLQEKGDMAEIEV
Method: Topo IV cleavage assays were set up in the same way as relaxation assays with some modifications. The concentration of enzyme was increased by 20% and cleavage complexes were trapped by the addition of 0.2% SDS and proteinase K (0.2 mg ml^−1) and further incubation at 37 °C for 30 min. Reactions were stopped in the same way as supercoiling assays.
as §3
Supplementary Figure 11. Activity of albicidin and Albi-1/2/3 on E. coli […]
Cleavage activity of E. coli topo IV in the presence of albicidin, Albi-1, Albi-2 and Albi-3. First lane: negatively supercoiled pBR322; second lane: innate cleavage activity of E. coli topo IV (15 nM); third lane: effect of 20 µM CFX; subsequent lanes: effect of increasing compound concentration (0.1, 1, 10, 100 µM). […]
concentration. All experiments were carried out in triplicates and representative gels […]
(1 picture or pasted object on this page, not shown here)

WT E. coli gyrase = target: T6, WT E. coli gyrase (Escherichia coli, UniProt P0AES4+P0AES6); test: biochemical; conditions: for % cleaved DNA Average: average of replicates
T6 construct: alternative cryo-EM approach involving full-length E. coli gyrase; 10-His (cleaved yes); Twin-Strep (cleaved yes); made in house
Method: as §1, §2, §3, §4

## COc1c(NC(=O)c2ccc(NC(=O)c3ccc(NC(=O)[C@H](CC#N)NC(=O)c4ccc(NC(=O)/C(C)=C/c5ccc(O)cc5)cc4)cc3)c(OC)c2O)ccc(C(=O)O)c1O [Albicidin]
E. coli gyrase GyrA^A67Q; 1 h
  increase in CC50: more than 10 fold
E. coli gyrase GyrA^A67Q; GyrAA67Q, average of 3 independent assays
  % maximal cleavage: 83±1%
E. coli gyrase GyrA^A67Q; GyrA^A67Q, mean ± s.d. of triplicate
  EC50: 610 ± 124 nM
E. coli gyrase GyrA^A67Q; albicidin 0.01 µM
  % cleaved DNA Average: 3.538%
E. coli gyrase GyrA^A67Q; albicidin 0.025 µM
  % cleaved DNA Average: 4.787%
E. coli gyrase GyrA^A67Q; albicidin 0.05 µM
  % cleaved DNA Average: 6.475%
E. coli gyrase GyrA^A67Q; albicidin 0.1 µM
  % cleaved DNA Average: 6.201%
E. coli gyrase GyrA^A67Q; albicidin 0.25 µM
  % cleaved DNA Average: 17.9877%
E. coli gyrase GyrA^A67Q; albicidin 0.5 µM
  % cleaved DNA Average: 34.7807%
E. coli gyrase GyrA^A67Q; albicidin 1 µM
  % cleaved DNA Average: 60.5747%
E. coli gyrase GyrA^A67Q; albicidin 5 µM
  % cleaved DNA Average: 76.5607%
E. coli gyrase GyrA^A67Q; albicidin 10 µM
  % cleaved DNA Average: 82.9213%
E. coli gyrase GyrA^A67Q; albicidin 25 µM
  % cleaved DNA Average: 77.2008%
E. coli gyrase GyrA^A67Q; albicidin 50 µM
  % cleaved DNA Average: 74.453%
[1]; GyrBK447W, average of 3 independent assays
  % maximal cleavage: 27±2%
[1]; GyrB^K447W vs WT gyrase
  decrease of the maximal cleavage: 3 fold
[1]; GyrB^K447W vs WT gyrase, 60 min
  increase in CC50: 10 fold
[1]; GyrB^K447W, mean ± s.d. of triplicate
  EC50: 452 ± 108 nM
E. coli gyrase GyrA^V70A; 1 h
  increase in CC50: > 25 fold
E. coli gyrase GyrA^V70A; GyrAV70A, average of 3 independent assays
  % maximal cleavage: 80±2%
E. coli gyrase GyrA^V70A; GyrA^V70A, cell prints its own unit
  EC50: 1240 nM
E. coli gyrase GyrA^V70A; albicidin 0.025 µM
  % cleaved DNA Average: 3.14%
E. coli gyrase GyrA^V70A; albicidin 0.05 µM
  % cleaved DNA Average: 4.791%
E. coli gyrase GyrA^V70A; albicidin 0.1 µM
  % cleaved DNA Average: 4.574%
E. coli gyrase GyrA^V70A; albicidin 0.25 µM
  % cleaved DNA Average: 12.5575%
E. coli gyrase GyrA^V70A; albicidin 0.5 µM
  % cleaved DNA Average: 14.0393%
E. coli gyrase GyrA^V70A; albicidin 1 µM
  % cleaved DNA Average: 46.9741%
E. coli gyrase GyrA^V70A; albicidin 5 µM
  % cleaved DNA Average: 65.2533%
E. coli gyrase GyrA^V70A; albicidin 10 µM
  % cleaved DNA Average: 79.6585%
E. coli gyrase GyrA^V70A; albicidin 50 µM
  % cleaved DNA Average: 77.0866%
[2]; GyrAM120A, average of 3 independent assays
  % maximal cleavage: 72±3%
[2]; GyrA^M120A, mean ± s.d. of triplicate
  EC50: 50 ± 11 nM
[2]; albicidin 0.0005 µM
  % cleaved DNA Average: 4.819%
[2]; albicidin 0.001 µM
  % cleaved DNA Average: 6.609%
[2]; albicidin 0.0025 µM
  % cleaved DNA Average: 6.667%
[2]; albicidin 0.005 µM
  % cleaved DNA Average: 6.183%
[2]; albicidin 0.01 µM
  % cleaved DNA Average: 19.8754%
[2]; albicidin 0.025 µM
  % cleaved DNA Average: 25.7528%
[2]; albicidin 0.05 µM
  % cleaved DNA Average: 41.0477%
[2]; albicidin 0.1 µM
  % cleaved DNA Average: 46.9644%
[2]; albicidin 0.5 µM
  % cleaved DNA Average: 60.6731%
[2]; albicidin 1 µM
  % cleaved DNA Average: 72.349%
E. coli gyrase GyrA^S83L; 1 h
  increase in CC50: 3 fold
E. coli gyrase GyrA^S83L; GyrAS83L, average of 3 independent assays
  % maximal cleavage: 68±5%
E. coli gyrase GyrA^S83L; GyrA^S83L, mean ± s.d. of triplicate
  EC50: 129 ± 43 nM
E. coli gyrase GyrA^S83L; albicidin 0.0025 µM
  % cleaved DNA Average: 2.652%
E. coli gyrase GyrA^S83L; albicidin 0.005 µM
  % cleaved DNA Average: 2.693%
E. coli gyrase GyrA^S83L; albicidin 0.01 µM
  % cleaved DNA Average: 2.768%
E. coli gyrase GyrA^S83L; albicidin 0.025 µM
  % cleaved DNA Average: 5.278%
E. coli gyrase GyrA^S83L; albicidin 0.05 µM
  % cleaved DNA Average: 12.476%
E. coli gyrase GyrA^S83L; albicidin 0.1 µM
  % cleaved DNA Average: 26.0782%
E. coli gyrase GyrA^S83L; albicidin 0.5 µM
  % cleaved DNA Average: 63.6873%
E. coli gyrase GyrA^S83L; albicidin 1 µM
  % cleaved DNA Average: 64.6552%
E. coli gyrase GyrA^S83L; albicidin 5 µM
  % cleaved DNA Average: 67.9433%
E. coli Topo IV; Topo IV cleavage complex stabilization, tested 0.1, 1, 10, 100 µM
  concentration at which a linear DNA band could be observed: 10 µM
E. coli Topo IV; in words
  stabilization of the cleavage complex with Topo IV: could stabilize the cleavage complex
WT E. coli gyrase; GyraseWT, average of 3 independent assays
  % maximal cleavage: 81±2%
WT E. coli gyrase; Gyrase^WT, mean ± s.d. of triplicate, read-out: CC50 (the source's name)
  EC50: 46 ± 3.7 nM
WT E. coli gyrase; albicidin 0.0005 µM
  % cleaved DNA Average: 3.748%
WT E. coli gyrase; albicidin 0.0025 µM
  % cleaved DNA Average: 5.277%
WT E. coli gyrase; albicidin 0.005 µM
  % cleaved DNA Average: 6.761%
WT E. coli gyrase; albicidin 0.01 µM
  % cleaved DNA Average: 11.8941%
WT E. coli gyrase; albicidin 0.025 µM
  % cleaved DNA Average: 24.028%
WT E. coli gyrase; albicidin 0.05 µM
  % cleaved DNA Average: 56.851%
WT E. coli gyrase; albicidin 0.1 µM
  % cleaved DNA Average: 62.7758%
WT E. coli gyrase; albicidin 0.25 µM
  % cleaved DNA Average: 75.7465%
WT E. coli gyrase; albicidin 0.5 µM
  % cleaved DNA Average: 79.6286%
WT E. coli gyrase; albicidin 1 µM
  % cleaved DNA Average: 76.3016%
WT E. coli gyrase; albicidin 10 µM
  % cleaved DNA Average: 81.3635%
